Here are results for three compounds from patent US20230226089A1, “METHODS AND COMPOSITIONS FOR TREATING DISEASES ASSOCIATED WITH SENESCENCE” (Atropos Therapeutics, Inc., priority 2019, published 2023).

For one assay, the system named is LS8817^TetONFMDM2 cells. Briefly: SA-β-gal positive cells in LS8817 TetON FLAG-MDM2 cells. In kind it is cell-based. As to the method:
The ability of tipifarnib to induce senescence was confirmed in the LS8817^TetONFMDM2 cells used in Example 2. LS8817^TetONFMDM2 cells were treated with either doxycycline alone for 8 days (DOX, black), doxycycline for three days followed by […] of 10 μg/ml doxycycline and 0.2 μM palbociclib (PD+DOX, Brown), or doxycycline for two days followed by three days of doxycycline and palbociclib followed by five days of doxycycline+palbociclib+0.1 μM tipifarnib (PD+DOX->tipi, green). ATRX foci and nuclear size were evaluated as describe previously. […] ATRX foci are shown in green, and DAPI staining in blue. […] The cells treated with 3 days of doxycycline and palbociclib followed by 5 days of tipifarnib had SA-β-gal in about 60% of cells compared to the cells treated with doxycycline and palbociclib for 8 days which had SA-β-gal in less than 10% of cells. Treatment with tipifarnib caused a greater than 6-fold increase in the number of senescent cells.

The subject of the next assay is HGPS fibroblasts. Briefly: Senescent cells (ATRX foci vs nuclear area) in progeria patient fibroblasts. In kind it is cell-based, human. As to the method: Normal diploid fibroblasts (NDF) and fibroblasts from a patient with premature aging syndrome (HGPS) were used to model human skin and to determine the effect of calcitriol on senescence in these cells. Calcitrol, a synthetic version of Vitamin D3, can reverse some symptoms of progeria. To assess the effect of calcitrol on senescence NDF and HGPS fibroblasts were cultured and treated with 0.5 μM calcitriol for up to 10 days. Cells were then stained for SA-β-gal. FIG. 11A and FIG. 11B show representative images of SA-β-gal negative and positive cells respectively. […] This experiment was repeated at least three times using different passages, a representative similarly passaged experiment is shown. […] The horizontal line demarcates the 90th percentile in ATRX foci number, a stringent definition of the senescent state. The vertical line demarcates the 70th percentile of nuclear area. Cells in the upper right quadrant are senescent (ATRX^highNV^large). […]
The natural extracts were also tested on fibroblast cells as described in Example 4. NDF and HGPS fibroblasts were treated with the natural product extracts for 7 days and then assessed for ATRX foci number, cell size and cell number, as indicated in the experimental design in FIG. 19. […] The data shown is representative of at least two different experiments for each mixture analyzed at multiple doses and multiple times.

For `CC(=O)c1c(C)c2cnc(Nc3ccc(N4CCNCC4)cn3)nc2n(C2CCCC2)c1=O` [palbociclib], in the assay on LS8817^TetONFMDM2 cells (doxycycline and palbociclib for 8 days), the “cells positive for SA-β-gal” value is on record as “less than 10%”. Further, the “cells SA-β-gal positive” value in the assay on LS8817^TetONFMDM2 cells (palbociclib alone (without doxycycline)) is “about 80%”.
For `C=C1/C(=C\C=C2/CCC[C@]3(C)[C@@H]([C@H](C)CCCC(C)(C)O)CC[C@@H]23)C[C@@H](O)C[C@@H]1O` [calcitriol], the “accumulation of senescent cells (ATRX foci number, nuclear size distribution)” value in the assay on HGPS fibroblasts (0.5 μM calcitriol up to 10 days) is “decreased the accumulation of senescent cells”. The “percentage of senescent cells (ATRX high, large nuclear area quadrant)” value in the assay with HGPS fibroblasts (HGPS cells, treated 7 days, about 10% without treatment) is listed as “about 0%”.
With `Cn1cncc1[C@@](N)(c1ccc(Cl)cc1)c1ccc2c(c1)c(-c1cccc(Cl)c1)cc(=O)n2C` [tipifarnib], the “cells positive for SA-β-gal” value with LS8817^TetONFMDM2 cells (3 days doxycycline and palbociclib followed by 5 days tipifarnib) was “about 60%”. Further, the “increase in the number of senescent cells” value in the assay on LS8817^TetONFMDM2 cells (tipifarnib added vs doxycycline and palbociclib 8 days) was “greater than 6 fold”.
